In paper PMC7565988, “Insight into the Anticancer Activity of Copper(II) 5-Methylenetrimethylammonium-Thiosemicarbazonates and Their Interaction with Organic Cation Transporters” (Biomolecules, 2020):
Read-outs that look alike come from different tables or passages of the source.

Columns and labels:
[1] = system: SH-SY5Y neuroblastoma cells; test: MTT cytotoxicity (24 h) / antiproliferation (72 h) assay; type: cell-based, human; details: SH-SY5Y; for IC50: Homo sapiens, MTT; for enhancement of cytotoxicity by chelation to copper(II), factor: proligand vs its copper(II) complex
Procedure: SH-SY5Y (ATCC® CRL-2266™) neuroblastoma cell line was purchased from LGC Promochem, Teddington, UK. The cell line was cultured in Eagle’s Minimal Essential Medium (EMEM, containing 4.5 g/L glucose) supplemented with a non-essential amino acid mixture, a selection of vitamins and 10% heat-inactivated foetal bovine serum. The cell line was incubated at 37 °C, in a 5% CO2, 95% air atmosphere.
(§1) In the study non-cancerous human embryonic lung fibroblast MRC-5, human colonic adenocarcinoma cell line (doxorubicin-sensitive Colo 205, multidrug resistant Colo 320) and neuroblastoma cell line SH-SY5Y were used to determine the effect of compounds on cell growth. The effects of increasing concentrations of compounds on cell growth were tested in 96-well flat-bottomed microtiter plates. The compounds were diluted in a volume of 100 μL of medium.
(§2) The adherent human embryonal lung fibroblast and SH-SY5Y neuroblastoma cells were cultured in 96-well flat-bottomed microtiter plates, using EMEM supplemented with 10% heat-inactivated foetal bovine serum. The density of the cells was adjusted to 2 × 10^4 cells in 100 μL per well, the cells were seeded for 24 h at 37 °C, 5% CO2, then the medium was removed from the plates containing the cells, and the dilutions of compounds previously made in a separate plate were added to the cells in 200 μL.
(§3) The culture plates were incubated at 37 °C for 24 h; at the end of the incubation period, 20 μL of MTT (thiazolyl blue tetrazolium bromide, Sigma) solution (from a stock solution of 5 mg/mL) were added to each well. After incubation at 37 °C for 4 h, 100 μL of sodium dodecyl sulfate (SDS) (Sigma) solution (10% in 0.01 M HCI) were added to each well and the plates were further incubated at 37 °C overnight. Cell growth was determined by measuring the optical density (OD) at 540/630 nm with Multiscan EX ELISA reader (Thermo Labsystems, Cheshire, WA, USA). […] Curves were fitted by GraphPad Prism software using the sigmoidal dose-response model (comparing variable and fixed slopes).
(§4) The method is similar to the one described in the assay for cytotoxic effect. […] The culture plates were incubated at 37 °C for 72 h and after the incubation time, the plates were stained with MTT according to the previous experimental protocol described for the cytotoxicity assay.

[2] = as above; type: cell-based; details: human, MRC-5 embryonal lung fibroblast cells (non-cancerous); for IC50 at 24 h: 24 h exposure; for IC50 at 72 h: 72 h exposure
Procedure: MRC-5 human embryonal lung fibroblast cell line (ATCC CCL-171) was purchased from LGC Promochem, Teddington, UK. The cell line was cultured in Eagle’s Minimal Essential Medium (EMEM, containing 4.5 g/L glucose) supplemented with a non-essential amino acid mixture, a selection of vitamins and 10% heat-inactivated foetal bovine serum. The cell line was incubated at 37 °C, in a 5% CO2, 95% air atmosphere.
as §1, §2, §3, §4

[3] = Distribution coefficient (D7.4), shake-flask method, n-octanol/buffered aqueous solution pH 7.40; type: physicochemical; details: n-octanol/PBS pH 7.4, 25 °C, read-out: logD7.4 (proligand)
Procedure: Distribution coefficients (D7.4) values were determined by the traditional shake-flask method in n-octanol/buffered aqueous solution at pH 7.40 (20 mM phosphate buffer saline (PBS)) at 25.0 ± 0.2 °C as described previously.

[4] = system: Colo 205 doxorubicin-sensitive colonic adenocarcinoma cells; test: MTT cytotoxicity (24 h) / antiproliferation (72 h) assay; type: cell-based, human; details: Homo sapiens, read-out: Colo205 IC50
Procedure: Human doxorubicin-sensitive Colo 205 (ATCC-CCL-222) and multidrug resistant Colo 320 (overexpressing ABCB1 (MDR1)-LRP (ATCC-CCL-220.1)) colonic adenocarcinoma cell lines were purchased from LGC Promochem, Teddington, UK. The cells were cultured in RPMI 1640 medium supplemented with 10% heat-inactivated fetal bovine serum, 2 mM L-glutamine, 1 mM Na-pyruvate and 100 mM Hepes. The cell lines were incubated at 37 °C, in a 5% CO2, 95% air atmosphere. The semi-adherent human colon cancer cells were detached with Trypsin-Versene (EDTA) solution for 5 min at 37 °C.
as §1
In case of the colonic adenocarcinoma cells, the two-fold serial dilutions of compounds were prepared in 100 μL of RPMI 1640, horizontally. The semi-adherent colonic adenocarcinoma cells were treated with Trypsin–Versene (EDTA) solution. The cells were adjusted to a density of 2 × 10^4 cells in 100 μL of RPMI 1640 medium, and were added to each well, with the exception of the medium control wells. The final volume of the wells containing compounds and cells was 200 μL.
as §3, §4

[5] = Proton dissociation constants (pKa) of proligands by UV/Vis spectrophotometric titration; type: physicochemical; details: for % HL at pH 7.4: fraction of proligand in neutral zwitterionic HL form at pH 7.4, computed with pKa; for pKa: proligand, phenolic OH, I = 0.1 M (KCl), t = 25 °C, water, read-out: pKa (H2L+)
Procedure: An Agilent Carry 8454 diode array spectrophotometer was used to record the UV/Vis spectra in the interval 200–800 nm. The path length was 1 cm. Proton dissociation constants (pKa) of the TSC ligands, the overall stability constants of the copper(II) monoligand complexes (logβ) and the individual spectra of the species in the various protonation states and stoichiometry were calculated by the computer program PSEQUAD [44]. Spectrophotometric titrations were performed on samples containing the proligands at 50 μM concentration by a KOH solution in the presence of 0.1 M KCl at 25.0 ± 0.1 °C in the pH range from 2 to 11.5, and the metal-to-ligand ratio was 1:0, 1:1 and 1:2. An Orion 710A pH-meter equipped with a Metrohm combined electrode (type 6.0234.100) and a Metrohm 665 Dosimat burette were used for the titrations. […] The average water ionisation constant (pKw) is 13.76 ± 0.05 in water. Argon was also passed over the solutions during the titrations. Measurements were also carried out in the range of ca. 1.0–2.0 by preparing individual samples in which KCl was partially or completely replaced by HCl and pH values (between 1 and 2) were calculated from the strong acid content.

Row | logD [3] | % HL at pH 7.4 [5] [%] | pKa [5] | Structure (SMILES) | IC50 ([1]; 24 h exposure) [µM] | IC50 ([1]; 72 h exposure) [µM] | enhancement of cytotoxicity by chelation to copper(II), factor [1] | IC50 at 24 h [2] [µM] | IC50 at 72 h [2] [µM] | IC50 ([4]; COLO 205, 24 h exposure) [µM] | IC50 ([4]; COLO 205, 72 h exposure) [µM]
1 | -0.39 ± 0.01 | 42 | 7.54 ± 0.01 | CNC(=S)N/N=C/c1cc(C[N+](C)(C)C)ccc1O [[H2L^Me]Cl] | > 100 | > 100 | ca. 7 | > 100 | > 100 | > 100 | > 100
2 | 0.06 ± 0.04 | 55 | 7.31 ± 0.01 | CCNC(=S)N/N=C/c1cc(C[N+](C)(C)C)ccc1O [[H2L^Et]Cl] | 88.1 ± 9.19 | 49.9 ± 3.97 | – | > 100 | > 100 | > 100 | > 100
3 | 0.68 ± 0.04 | 70 | 7.03 ± 0.01 | C[N+](C)(C)Cc1ccc(O)c(/C=N/NC(=S)Nc2ccccc2)c1 [[H2L^Ph]Cl] | > 100 | 31.5 ± 2.66 | – | > 100 | > 100 | > 100 | > 100

Row | Structure (SMILES) | logD [3] | % HL at pH 7.4 [5] [%] | pKa [5] | IC50 ([1]; 24 h exposure) [µM] | IC50 ([1]; 72 h exposure) [µM] | enhancement of cytotoxicity by chelation to copper(II), factor [1] | IC50 at 24 h [2] [µM] | IC50 at 72 h [2] [µM] | IC50 ([4]; COLO 205, 24 h exposure) [µM] | IC50 ([4]; COLO 205, 72 h exposure) [µM]
4 | C[N+](C)(C)Cc1ccc(O)c(/C=N/NC(N)=S)c1 [[H2L^H]Cl] | -0.84 ± 0.03 | 47 | 7.46 ± 0.01 | > 100 | > 100 | ca. 2 | > 100 | > 100 | > 100 | > 100
